We go through 3 molecules from patent publication US4332895A, “Thermal stable beta-galactosidase” (National Research Development Corp., priority 1978, dated 1982).

Molecules are shown by their SMILES. Read-outs that look alike come from different tables or passages of the source.

Common to all, as to type: biochemical
For experiment [1], the system named is β-galactosidase of Bacillus stearothermophilus HRI strains (HRI enzyme), purified enzyme. As to the kind of experiment: β-galactosidase assay, purified enzyme, ONPG or lactose as substrate. How it is done: The assay used is based on that of Lederberg (J. Bacteriol. 1950, 60, 381), using an assay mixture comprising 2.8 ml of 50 mM sodium phosphate, pH 7.0, and 0.1 ml of 68 mM ONPG. 0.1 ml aliquots of both purified enzyme and toluene-treated cell suspension, and 10 mg. amounts in 2.9 ml of buffer of freeze dried immobilised whole cell preparation are used for the assays. Assays are carried out at incubation temperature of 65° C. and after the appropriate time interval the reactions are halted by addition of 3 ml aliquots of 0.5 M sodium bicarbonate to each reaction mixture and immediate cooling in an ice bath. The absorbance of the resultant solutions is measured at 410 nm using a Perkin-Elmer 124 double beam spectrophotometer. In the case of whole cell suspensions the assay tubes are centrifuged and in the case of the immobilised cells the mixtures are filtered, to remove cells and polyacrylamide gel respectively prior to measurement of the absorbance.
The assay mixture used comprises 0.9 ml of 50 mM sodium phosphate buffer, pH 7.0, 4 ml of lactose (4 g in 100 ml of phosphate buffer), to which 0.1 ml of purified enzyme or cell suspension or 10 mg of gel entrapped cell preparation is added. The reaction mixtures are incubated for 15 minutes at 65° C., reactions are halted by addition of 4.2% perchloric acid and the solutions are centrifuged. Aliquots of the supernatant solutions are assayed for glucose or galactose.
Glucose is estimated by a modification of the method of Trinder (Ann. Clin. Biochem. 1969 6, 24). 1 ml aliquots of the supernatant solutions are assayed by addition to a mixture comprising 1 ml of 0.2% phenol and 3 ml of colour reagent (75 ml 4% (w/v) disodium hydrogen orthophosphate, 225 ml of water, 6 mg of glucose oxidase (Boehringer Corp. Ltd.), 0.15 ml peroxidase (Boehringer Corp. Ltd.), 100 mg of 4-aminophenazone and 300 mg of sodium azide) followed by incubation at 37° C. for 10 minutes and absorbance measurement at 515 nm.
Galactose is estimated as follows: a sample (e.g. 0.2 ml) containing not more than 200 μg/ml of galactose is mixed with 2.5 ml of buffer (4.8 g Na2 HPO4, 0.86g NaH2 PO4 and 0.2 g MgSO4 7H2 O per 200 ml of H2 O) and 0.1 ml of 10 mg/ml of NAD solution and the absorbance is measured at 340 nm. 0.02 ml of galactose dehydrogenase (Boehringer Corp. Ltd.) is added, the solutions incubated at 37° C. for 30 minutes and the absorbance again measured at 340 nm.

For experiment [2], the system named is β-galactosidase of Bacillus stearothermophilus HRI strains, entrapped whole cell preparation. Nature of the experiment: β-galactosidase assay, polyacrylamide gel entrapped (immobilised) whole cell preparation, ONPG or lactose as substrate. The note with it: for Km: entrapped whole cell preparation, pH 7.0, 65° C. How it is done:
Washed cells which have been toluene treated, as above, are resuspended in an equal volume of 50 mM sodium phosphate buffer, pH 7.0, containing acrylamide (200 g/l) and NN'-methylenebisacrylamide (20 g/l). Ammonium persulphate (2 […]) are added to this suspension which is then allowed to gel, and the gel is disrupted by forcing through a wire mesh, as described by Hjerten (Arch. Biochem. Biophys. […] The disrupted gel is freeze-dried to provide a stock of enzymatically active immobilised whole cell preparation. The assay used is based on that of Lederberg (J. […] Assays are carried out at incubation temperature of 65° C. and after the appropriate time interval the reactions are halted by addition of 3 ml aliquots of 0.5 M sodium bicarbonate to each reaction mixture and immediate cooling in an ice bath. The absorbance of the resultant solutions is measured at 410 nm using a Perkin-Elmer 124 double beam spectrophotometer. In the case of whole cell suspensions the assay tubes are centrifuged and in the case of the immobilised cells the mixtures are filtered, to remove cells and polyacrylamide gel respectively prior to measurement of the absorbance. […] The reaction mixtures are incubated for 15 minutes at 65° C., reactions are halted by addition of 4.2% perchloric acid and the solutions are centrifuged. Aliquots of the supernatant solutions are assayed for glucose or galactose. Glucose is estimated by a modification of the method of Trinder (Ann. Clin. […] Ltd.), 0.15 ml peroxidase (Boehringer Corp. Ltd.), 100 mg of 4-aminophenazone and 300 mg of sodium azide) followed by incubation at 37° C. for 10 minutes and absorbance measurement at 515 nm. […] Ltd.) is added, the solutions incubated at 37° C. for 30 minutes and the absorbance again measured at 340 nm.

Experiment [3] deals with β-galactosidase of Bacillus stearothermophilus HRI strains, whole cell suspension. As to the kind of experiment: β-galactosidase assay, toluene-treated whole cell suspension, ONPG or lactose as substrate. Particulars: for Km: whole cell suspension, pH 7.0, 65° C. As for the experimental part:
The cells are shaken at room temperature for about 5 minutes, and then harvested by centrifugation at 6000 g for 20 minutes in an MSE "Hi Spin 21" centrifuge prior to washing with buffer. […] The relation of Harris and Kornberg (Proc. Roy. Soc. Lond. B. 1972, 182, 159) is used to determine the cell density, 0.33 mg. dry wt. of B. stearothermophilus corresponding to an absorbance of 1.0 at 680 n.m. The assay used is based on that of Lederberg (J. […] Assays are carried out at incubation temperature of 65° C. and after the appropriate time interval the reactions are halted by addition of 3 ml aliquots of 0.5 M sodium bicarbonate to each reaction mixture and immediate cooling in an ice bath. The absorbance of the resultant solutions is measured at 410 nm using a Perkin-Elmer 124 double beam spectrophotometer. In the case of whole cell suspensions the assay tubes are centrifuged and in the case of the immobilised cells the mixtures are filtered, to remove cells and polyacrylamide gel respectively prior to measurement of the absorbance. […] The reaction mixtures are incubated for 15 minutes at 65° C., reactions are halted by addition of 4.2% perchloric acid and the solutions are centrifuged. Aliquots of the supernatant solutions are assayed for glucose or galactose. Glucose is estimated by a modification of the method of Trinder (Ann. Clin. […] Ltd.), 0.15 ml peroxidase (Boehringer Corp. Ltd.), 100 mg of 4-aminophenazone and 300 mg of sodium azide) followed by incubation at 37° C. for 10 minutes and absorbance measurement at 515 nm. […] Ltd.) is added, the solutions incubated at 37° C. for 30 minutes and the absorbance again measured at 340 nm.

Where [4] appears, read: read-out: Michaelis constant (Km) with ONPG as substrate.
The mark [5] stands for this setting: read-out: Km with lactose as substrate.

As to `N[C@@H](CS)C(=O)O` [Cysteine, cysteine], the “% Activity” value in experiment [1] (addition at 10 mM final, ONPG as substrate, purified enzyme, no addition = 100) amounted to 98.1%; in experiment [2] (addition at 10 mM final, ONPG as substrate, immobilised whole cells, no addition = 100), 109.4%; in experiment [3] (addition at 10 mM final, ONPG as substrate, whole cells, no addition = 100) it was 103.7%.

As for `O=[N+]([O-])c1ccccc1O[C@@H]1O[C@H](CO)[C@H](O)[C@H](O)[C@H]1O` [ONPG, orthonitrophenyl-β-D-galactopyranoside, reference compound], the Km was determined as 430 µM in experiment [1] (HRI enzyme, measured at 65° C., read-out: Michaelis constant (Km) for ONPG); 430 µM in experiment [1] (purified enzyme, pH 7.0, 65° C., read-out: Michaelis constant (Km) with ONPG as substrate); 260 µM in experiment [2] (setting [4]); 380 µM in experiment [3] (setting [4]).

For the molecule `OC[C@H]1O[C@@H](O[C@H]2[C@H](O)[C@@H](O)C(O)O[C@@H]2CO)[C@H](O)[C@@H](O)[C@H]1O` (some centres unmarked) [lactose], the Km was 2100 µM in experiment [1] (HRI enzyme, measured at 65° C., read-out: Michaelis constant (Km) for lactose); 2060 µM in experiment [1] (purified enzyme extract, pH 7.0, 65° C., read-out: Km with lactose as substrate); 9520 µM in experiment [2] (setting [5]); 11800 µM in experiment [3] (setting [5]).
